Assay results taken from patent publication US7670579B2, “Nanostructured bioactive materials prepared by dual nozzle spray drying techniques” (American Dental Association Foundation, priority 2004, dated 2010).

Experiments:
[1] = cited from earlier work
[2] = Solubility of salts in saturated spray drying solutions (Table 2); format: physicochemical
Excerpt: Other examples of the methods of the invention include formation of nano particles of other components. For example, compositions of solution to be spray dried for preparing nano particles of various calcium phosphate phases are set forth in Table 2. Because MCPM is highly soluble, the solution for the nano MCPM production can be prepared by dissolving an appropriate amount of MCPM or other sources of Ca (for example CaCO3) and P (for example H3PO4) in a solution of the desired concentration (Table 2). For the preparation of nano particles of other calcium phosphates, a volatile weak acid is used to facilitate solubilization of the calcium phosphate ions. […] In general, a minimum amount of the volatile weak acid, necessary to keep the calcium and phosphate ions in the solution, is used to facilitate the removal of the acid in the spray drying process.

[3] = Reaction of CaF2 with macro DCPD in water paste, XRD; format: physicochemical; conditions: paste with water 1g/1 mL, 100% humidity, 37° C., 24 h
Experimental: In another test, mixtures containing a macro (median size 1.6 μm) DCPD and either the nano CaF2 or a macro CaF2 were mixed with water (1g/1 mL) and the pastes were left in 100% humidity at 37° C. for 24 h.

[4] = comparison value for crystalline CaF2; cited from earlier work
[5] = acetic acid, high: DCPD/DCPA 996, OCP 995, ACP/TCP 985, HA 998 mmol/L
[6] = acetic acid, low: DCPD/DCPA 0, OCP 0.04, ACP/TCP 0, HA 0.122 mmol/L
[7] = carbonic acid, high: DCPD/DCPA 1000 mol/L, OCP 1018, ACP/TCP 1152, HA 1004 mmol/L
[8] = carbonic acid, low: DCPD/DCPA 0, OCP 0.04, ACP/TCP 0, HA 0.164 mmol/L

Molecule | IAP(HA) ([1]; comparison value for crystalline HA) | pIAP(HA) ([1]; comparison value for macro scale HA) | [Ca] of saturated solution [2, 5] [mmol/L] | [P] of saturated solution [2, 5] [mmol/L] | pH of saturated solution [2, 5] | [Ca] of saturated solution [2, 6] [mmol/L] | [P] of saturated solution [2, 6] [mmol/L] | pH of saturated solution [2, 6] | [Ca] of saturated solution [2, 7] [mmol/L] | [P] of saturated solution [2, 7] [mmol/L] | pH of saturated solution [2, 7] | [Ca] of saturated solution [2, 8] [mmol/L] | [P] of saturated solution [2, 8] [mmol/L] | pH of saturated solution [2, 8] | consumption of CaF2 by reaction with DCPD (XRD) [3] | Ksp [4]
Hydroxyapatite [HA] | 1×10^−117 | 117 | 132 | 79 | 3.9 | 0.1 | 0.06 | 6.8 | 14.2 | 8.54 | 4.6 | 0.1 | 0.06 | 6.8 | – | –
[Ca+2].[F-].[F-] [crystalline CaF2, Calcium fluoride] | – | – | – | – | – | – | – | – | – | – | – | – | – | – | no reduction | 3.9×10^−11
